# From ChEMBL document CHEMBL5729664, “Substituted pyridine derivatives as SARM1 inhibitors” (2023)
# Experiment: Biological Assay: Each reaction was run at a volume of 20 μL containing 50 μM compound (dissolved in DMSO; final concentration of DMSO is 1% v/v), 40 nM human SARM1 (50-724), 0.3 mM NMN, 20 μM NAD, 1 mM TCEP, 25 mM HEPES pH 7.4, 10 mM KCl and 10 mM MgCl2. The reaction was incubated at room temperature for 60 minutes and quenched with 20 μL of 0.4% formic acid. The samples were run on Agilent HPLC 1260 Infinity II with Synergi 2.5 μM Fusion-RP 100 Å (100×3.0 mm) LC column from Phenomenex. Total run time for each sample was 4 minutes. The run was isocratic with 1.5% methanol in 40 mM ammonium acetate pH 6.0. Samples were run at a flow rate of 0.8 ml/min at 55° C. Peak areas of NAD and NAM were determined using OpenLAB CDS (Chem Station edition) software. For dose-response, the compound was diluted serially 1:3 in DMSO and added to the reaction starting at a final compound concentration of 100 μM in 1% DMSO.
row,Compound,IC50
1,CN(C)C(c1ncc(Cc2ccncc2)[nH]1)C(F)(F)F (stereo not drawn),in the range around 55 µM
2,CC(c1ccncc1)c1c[nH]c(CC(F)(F)F)n1 (stereo not drawn),< 1 µM
3,CN[C@@H](c1ncc(Cc2ccncc2)[nH]1)C(F)(F)F,in the range around 5.5 µM
4,N[C@@H](c1nc(Cc2ccncc2)c[nH]1)C(F)(F)F,< 1 µM
5,CC(O)(c1nc(Cc2ccncc2)c[nH]1)C(F)(F)F (stereo not drawn),in the range around 5.5 µM
6,C[C@@H](c1ccncc1)c1c[nH]c([C@@H](O)C(F)(F)F)n1,< 1 µM
7,OC(c1nc(Cc2ccncc2Cl)c[nH]1)C(F)(F)F (stereo not drawn),< 1 µM
8,OC(c1ncc(Cc2ccncc2)[nH]1)(c1cncs1)C(F)(F)F (stereo not drawn),in the range around 55 µM
9,C[C@@H](c1ccncc1)c1c[nH]c([C@H](O)C(F)(F)F)n1,in the range around 55 µM
10,CC(c1ccncc1)c1ccc(CC(F)(F)F)[nH]1 (stereo not drawn),in the range around 5.5 µM
11,O[C@@H](c1nc(Cc2ccncc2)c[nH]1)c1cncs1,< 1 µM
12,O[C@H](c1ncc(Cc2ccncc2)[nH]1)C(F)(F)F,< 1 µM
13,OC(c1ccccn1)c1ncc(Cc2ccncc2)[nH]1 (stereo not drawn),in the range around 5.5 µM
14,"Cc1cnccc1Cc1cnc([C@@H](O)c2cncs2)[nH]1 (single isomer, unassigned)",in the range around 55 µM
15,Cc1cnccc1Cc1c[nH]c([C@H](O)C(F)(F)F)n1,< 1 µM
16,OC(C1N=CC(Cc2ccncc2F)=N1)C(F)(F)F (stereo not drawn),< 1 µM
17,O[C@H](C1N=CC(Cc2ccncc2F)=N1)C(F)(F)F (stereo partly drawn),in the range around 5.5 µM
18,CNC(c1ncc(Cc2ccncc2)[nH]1)C(F)(F)F (stereo not drawn),in the range around 5.5 µM
19,COC(c1ncc(Cc2ccncc2)[nH]1)C(F)(F)F (stereo not drawn),in the range around 5.5 µM
20,C[C@H](c1ccncc1)c1c[nH]c(CC(F)(F)F)n1,< 1 µM
21,NC(c1nc(Cc2ccncc2)cs1)C(F)(F)F (stereo not drawn),in the range around 55 µM
22,O[C@@H](c1ncc(Cc2ccncc2)[nH]1)C(F)(F)F,< 1 µM
23,O[C@H](c1ncc(Cc2ccncc2)[nH]1)c1nccs1,in the range around 5.5 µM
